According to US20250186470A1, “Compositions and Methods Using Lactulose for Treating Disease” (THE UNIVERSITY OF CHICAGO, priority 2023, published 2025):

Experiment: 90-day survival of liver disease patients, Kaplan-Meier and Cox proportional hazards
Type: in vivo, human
Settings: Table S10, covariate Lactulose, Bifido >10%, model also has MELD-Na, age and sex at enrollment
Description: FIGS. 5A-5H: Bifidobacteria expansion and associated metabolite production are associated with decreased incidence of systemic infection and prolonged survival. (A) A Linear discriminant analysis effect size (LEfSe) showing the significant (Wilcoxon rank-sum, two-tailed, p≤0.05) effect sizes of taxa between groups. (B) Acetate (mM) and taurocholic acid (μg/mL) were quantified, and (C) conversion from conjugated-primary BA to primary BA and then to secondary BAs was tested for each sample. Each point represents a molar ratio for an individual sample. (A-C) Sample size: n=101 (no SBP), n=21 (SBP)). (D) LEfSe showing the significant (Wilcoxon rank-sum, two-tailed, p≤0.05) effect sizes of taxa between groups. (E) Acetate (mM) and taurocholic acid (μg/mL) were quantified, and (F) conversion from conjugated-primary BA to primary BA and then to secondary BAs was tested for each sample. Each point represents a molar ratio for an individual sample. (D-F) Sample size: n=227 (no bacteremia), n=19 (bacteremia)). (B,C,E, and F) Each point represents a single sample. Median and interquartile range are indicated by the horizontal line and box, respectively. The lower vertical line depicts Q1-1.5*IQR and the upper vertical line depicts Q3+1.5*IQR. Statistical comparisons between individual groups were analyzed using a two-tailed Wilcoxon rank sum test. […]

## OC[C@H]1O[C@@H](O[C@@H]2[C@@H](CO)OC(O)(CO)[C@H]2O)[C@H](O)[C@@H](O)[C@H]1O (mixture of isomers) [Lactulose, lactulose]
  Estimate (Cox proportional hazards coefficient): −0.87
  Exp (coef): 0.42
